Test results reported in PubChem BioAssay AID1963840 (Molecular Pharmacology Branch, DTP, NCI, 2024).

Tested on: 695427-040-R-J1-PDC complex spheroid viability
Test: Anticancer human tumor 695427-040-R-J1-PDC patient-derived colon adenocarcinoma cell line growth inhibition [POLQ]
Conditions: for IC50: curve of first compound; for viability, T/C: stronger effect = lower value
Procedure, shortened: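 Complex spheroid viability model combining PDC tumour cells with endothelial (HUVEC) and MSC stromal cells. Novobiocin, ART-558 or RP6685 were tested singly and in combination with standard and investigational anticancer drugs. Each was titrated in half-log steps from near clinical Cmax, or from 10 microM where Cmax was unknown.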

[1] = second compound 0.0316 µM, first compound 0.00316 µM
[2] = second compound 0.0316 µM, first compound 0.01 µM
[3] = second compound 0.0316 µM, first compound 0.0316 µM
[4] = second compound 0.0316 µM, first compound 0.1 µM
[5] = second compound 0.0316 µM, first compound 0.316 µM
[6] = second compound 0.0316 µM, first compound 1 µM
[7] = second compound 0.1 µM, first compound 0.00316 µM
[8] = second compound 0.1 µM, first compound 0.01 µM
[9] = second compound 0.1 µM, first compound 0.0316 µM
[10] = second compound 0.1 µM, first compound 0.1 µM
[11] = second compound 0.1 µM, first compound 0.316 µM
[12] = second compound 0.1 µM, first compound 1 µM
[13] = second compound 0.316 µM, first compound 0.00316 µM
[14] = second compound 0.316 µM, first compound 0.01 µM
[15] = second compound 0.316 µM, first compound 0.0316 µM
[16] = second compound 0.316 µM, first compound 0.1 µM
[17] = second compound 0.316 µM, first compound 0.316 µM
[18] = second compound 0.316 µM, first compound 1 µM
[19] = second compound 1 µM, first compound 0.00316 µM
[20] = second compound 1 µM, first compound 0.01 µM
[21] = second compound 1 µM, first compound 0.0316 µM
[22] = second compound 1 µM, first compound 0.1 µM
[23] = second compound 1 µM, first compound 0.316 µM
[24] = second compound 1 µM, first compound 1 µM
[25] = second compound 3.16 µM, first compound 0.00316 µM
[26] = second compound 3.16 µM, first compound 0.01 µM
[27] = second compound 3.16 µM, first compound 0.0316 µM
[28] = second compound 3.16 µM, first compound 0.1 µM
[29] = second compound 3.16 µM, first compound 0.316 µM
[30] = second compound 3.16 µM, first compound 1 µM
[31] = second compound 10 µM, first compound 0.00316 µM
[32] = second compound 10 µM, first compound 0.01 µM
[33] = second compound 10 µM, first compound 0.0316 µM
[34] = second compound 10 µM, first compound 0.1 µM
[35] = second compound 10 µM, first compound 0.316 µM
[36] = second compound 10 µM, first compound 1 µM
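Note: spheroids exposed to compounds for seven days.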
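Throughout, for viability, T/C: 100% = DMSO vehicle control viability.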

C=CCn1c(=O)c2cnc(Nc3ccc(N4CCN(C)CC4)cc3)nc2n1-c1cccc(C(C)(C)O)n1 + Cc1cccc(N(C)C(=O)C2C(O)CCN2c2nc(C)cc(C(F)(F)F)c2C#N)c1
IC50 (second compound 0.0316 µM): > 1000 nM
IC50 (second compound 0.1 µM): > 1000 nM
IC50 (second compound 0.316 µM): > 1000 nM
IC50 (second compound 1 µM): > 1000 nM
IC50 (second compound 3.16 µM): > 1000 nM
IC50 (second compound 10 µM): > 1000 nM
viability, T/C [1]: 100%
viability, T/C [2]: 99.4%
viability, T/C [3]: 101%
viability, T/C [4]: 92.6%
viability, T/C [5]: 94.3%
viability, T/C [6]: 83.6%
viability, T/C [7]: 115%
viability, T/C [8]: 108%
viability, T/C [9]: 93.2%
viability, T/C [10]: 103%
viability, T/C [11]: 93.4%
viability, T/C [12]: 69.5%
viability, T/C [13]: 105%
viability, T/C [14]: 121%
viability, T/C [15]: 95.5%
viability, T/C [16]: 92.5%
viability, T/C [17]: 107%
viability, T/C [18]: 90.1%
viability, T/C [19]: 109%
viability, T/C [20]: 95.9%
viability, T/C [21]: 102%
viability, T/C [22]: 100%
viability, T/C [23]: 98.1%
viability, T/C [24]: 64.2%
viability, T/C [25]: 91.8%
viability, T/C [26]: 90.8%
viability, T/C [27]: 88.9%
viability, T/C [28]: 89.3%
viability, T/C [29]: 91.4%
viability, T/C [30]: 69.5%
viability, T/C [31]: 93.9%
viability, T/C [32]: 89.3%
viability, T/C [33]: 87.7%
viability, T/C [34]: 92.7%
viability, T/C [35]: 91.4%
viability, T/C [36]: 67.9%

CC[C@@]1(O)C(=O)OCc2c1cc1n(c2=O)Cc2cc3c(CN(C)C)c(O)ccc3nc2-1 + Cc1cccc(N(C)C(=O)C2C(O)CCN2c2nc(C)cc(C(F)(F)F)c2C#N)c1
IC50 (second compound 0.0316 µM): > 100 nM
IC50 (second compound 0.1 µM): > 100 nM
IC50 (second compound 0.316 µM): > 100 nM
IC50 (second compound 1 µM): > 100 nM
IC50 (second compound 3.16 µM): > 100 nM
IC50 (second compound 10 µM): > 100 nM
viability, T/C (second compound 0.0316 µM, first compound 0.000316 µM): 110%
viability, T/C (second compound 0.0316 µM, first compound 0.001 µM): 98.7%
viability, T/C [1]: 104%
viability, T/C [2]: 94.5%
viability, T/C [3]: 99.4%
viability, T/C [4]: 88.5%
viability, T/C (second compound 0.1 µM, first compound 0.000316 µM): 109%
viability, T/C (second compound 0.1 µM, first compound 0.001 µM): 98.5%
viability, T/C [7]: 94.7%
viability, T/C [8]: 104%
viability, T/C [9]: 97.5%
viability, T/C [10]: 88.7%
viability, T/C (second compound 0.316 µM, first compound 0.000316 µM): 99.1%
viability, T/C (second compound 0.316 µM, first compound 0.001 µM): 95.9%
viability, T/C [13]: 98.2%
viability, T/C [14]: 91.5%
viability, T/C [15]: 101%
viability, T/C [16]: 87.3%
viability, T/C (second compound 1 µM, first compound 0.000316 µM): 98.2%
viability, T/C (second compound 1 µM, first compound 0.001 µM): 93.4%
viability, T/C [19]: 97.5%
viability, T/C [20]: 97.1%
viability, T/C [21]: 93.7%
viability, T/C [22]: 86.9%
viability, T/C (second compound 3.16 µM, first compound 0.000316 µM): 92.4%
viability, T/C (second compound 3.16 µM, first compound 0.001 µM): 98.5%
viability, T/C [25]: 91.7%
viability, T/C [26]: 98.4%
viability, T/C [27]: 101%
viability, T/C [28]: 81.7%
viability, T/C (second compound 10 µM, first compound 0.000316 µM): 85.6%
viability, T/C (second compound 10 µM, first compound 0.001 µM): 89.4%
viability, T/C [31]: 104%
viability, T/C [32]: 90%
viability, T/C [33]: 87.5%
viability, T/C [34]: 77.7%

CCc1c2c(nc3ccc(O)cc13)-c1cc3c(c(=O)n1C2)COC(=O)[C@]3(O)CC + Cc1cccc(N(C)C(=O)C2C(O)CCN2c2nc(C)cc(C(F)(F)F)c2C#N)c1
IC50 (second compound 0.0316 µM): > 1000 nM
IC50 (second compound 0.1 µM): > 1000 nM
IC50 (second compound 0.316 µM): > 1000 nM
IC50 (second compound 1 µM): > 1000 nM
IC50 (second compound 3.16 µM): 912 nM
IC50 (second compound 10 µM): 572 nM
viability, T/C [1]: 101%
viability, T/C [2]: 90.1%
viability, T/C [3]: 83%
viability, T/C [4]: 81.7%
viability, T/C [5]: 66.1%
viability, T/C [6]: 51.4%
viability, T/C [7]: 99.6%
viability, T/C [8]: 98.9%
viability, T/C [9]: 80.5%
viability, T/C [10]: 76.3%
viability, T/C [11]: 69.3%
viability, T/C [12]: 52.8%
viability, T/C [13]: 93.2%
viability, T/C [14]: 92.8%
viability, T/C [15]: 90.7%
viability, T/C [16]: 75.8%
viability, T/C [17]: 67.4%
viability, T/C [18]: 49.7%
viability, T/C [19]: 96.2%
viability, T/C [20]: 94.5%
viability, T/C [21]: 85.2%
viability, T/C [22]: 77.3%
viability, T/C [23]: 67.9%
viability, T/C [24]: 51.2%
viability, T/C [25]: 89.4%
viability, T/C [26]: 84.9%
viability, T/C [27]: 82.2%
viability, T/C [28]: 82.8%
viability, T/C [29]: 66.3%
viability, T/C [30]: 48.6%
viability, T/C [31]: 84.2%
viability, T/C [32]: 80.7%
viability, T/C [33]: 78.9%
viability, T/C [34]: 70.5%
viability, T/C [35]: 58.5%
viability, T/C [36]: 41.7%
